Four compounds from paper PMC8303187, “Anti-Inflammatory Effects of Compounds from Cudrania tricuspidata in HaCaT Human Keratinocytes” (International Journal of Molecular Sciences, 2021) can be followed below.

Data set [1] deals with IκBα degradation in HaCaT cells. The data set can be described thus: Degradation of cytoplasmic IκBα in TNF-α + IFN-γ-treated HaCaT cells (Western blotting). The class given is cell-based, human. As to conditions: HaCaT cells pretreated 3 h, then TNF-α + IFN-γ (20 ng/mL) 10 min; Western blot. The text has this:
(§1) The activation of NF-κB by TNF-α and/or IFN-γ results from high levels of IκB phosphorylation and the degradation of IκB in keratinocytes. NF-κB–mediated inflammation is a significant component of innate immunity and seems to be a final common pathway for the aggravation of the inflammatory response to stimuli in immune diseases of the skin [56]. To determine the potential mechanisms of the inhibition of TNF-α + IFN-γ-induced pro-inflammatory enzyme and the mediator levels by the six compounds from C. tricuspidata, their effects on the phosphorylation and degradation of cytoplasmic IκBα and on p65 translocation to the nucleus were investigated. […] In addition, compounds 13, 4, and 14 inhibited the phosphorylation of IκBα (Figure 5C,D). When HaCaT cells were exposed to TNF-α + IFN-γ, NF-κB p65 translocated from the cytoplasm to the nucleus.
(§2) Figure 5 Effects of the six compounds from C. tricuspidata on the degradation of IκB-α (A,B), the phosphorylation of IκBα (C,D), and the translocation of NF-κB p65 to the nucleus (E,F) in HaCaT cells. Cells were pretreated with the six compounds from C. tricuspidata at the indicated concentrations for 3 h and stimulated with TNF-α + IFN-γ (20 ng/mL) for 10 min. IκBα, p-IκBα, and NF-κB p65 were analyzed using Western blotting, as described in the Materials and Methods section. Representative blots from four independent experiments are presented. The immunoblots were quantified using ImageJ software. The band intensity was normalized to that of actin or anti-proliferating cell nuclear antigen (PCNA). * p < 0.05, ** p < 0.01, *** p < 0.001 compared with TNF-α + IFN-γ only.
(§3) Cells were harvested and pelleted via centrifugation at 200× g for 3 min, washed with PBS, and lysed in 20 mM Tris-HCl buffer (pH 7.4) containing a protease inhibitor mixture (0.1 mM phenylmethanesulfonyl fluoride, 5 mg/mL aprotinin, 5 mg/mL pepstatin A, and 1 mg/mL chymostatin). The protein concentration was determined using a protein assay dye reagent concentrate (#5000006; Bio-Rad Laboratories, Hercules, CA, USA). A total of 30 micrograms of protein from each sample was resolved using 7.5% and 12% sodium dodecyl sulfate-polyacrylamide gel electrophoresis. Thereafter, the proteins were electrophoretically transferred onto Hybond enhanced chemiluminescence (ECL) nitrocellulose membranes (Bio-Rad Laboratories). The membranes were blocked with 5% skimmed milk, and sequentially incubated with the relevant primary antibody and horseradish peroxidase-conjugated secondary antibody, prior to ECL detection (Pierce Biotechnology, Rockford, IL, USA).
(§4) HaCaT cells were homogenized in PER-Mammalian Protein Extraction Buffer (1:20, w:v) (Pierce Biotechnology, Rockford, IL, USA) containing freshly added protease inhibitor cocktail I (EMD Biosciences, San Diego, CA, USA) and 1 mM phenylmethanesulfonyl fluoride. The cytosolic fractions were prepared using centrifugation at 16,000× g for 5 min at 4 °C, while the nuclear and cytoplasmic cell extracts were prepared using NE-PER nuclear and cytoplasmic extraction reagents, respectively (Pierce Biotechnology, Rockford, IL, USA).

Data set [2] deals with NF-κB p65 translocation to the nucleus in HaCaT cells. Put plainly: NF-κB p65 translocation to the nucleus in TNF-α + IFN-γ-treated HaCaT cells (Western blotting). Format: cell-based, human. To be noted: HaCaT cells pretreated 3 h, then TNF-α + IFN-γ (20 ng/mL) 10 min; Western blot.
Source text: as §1, §2, §3, §4

The subject of data set [3] is HaCaT cells. The data set can be described thus: Cell Counting Kit (CCK)-8 cell viability / cytotoxicity assay. To be noted: CCK-8 assay, 24 h, concentration values that did not result in cytotoxicity.
Method: The cytotoxicity of the 16 compounds was evaluated using a Cell Counting Kit (CCK)-8 assay on HaCaT cells.
To determine the viability of HaCaT cells, these were maintained at 2 × 10^4 cells/well, treated with the test compounds in the presence or absence of glutamate (5 mM), and cultured for 24 h. Subsequently, a CCK8 assay (Dojindo Laboratories, Kumamoto, Japan) was performed and the cells were incubated for 1 h. The absorbance was then measured at 450 nm.
The subject of data set [4] is IκBα phosphorylation in HaCaT cells. Put plainly: Phosphorylation of IκBα in TNF-α + IFN-γ-treated HaCaT cells (Western blotting). Format: cell-based, human. As to conditions: HaCaT cells pretreated 3 h, then TNF-α + IFN-γ (20 ng/mL) 10 min; Western blot.
Source text: as §1, §2
Cells were harvested and pelleted via centrifugation at 200× g for 3 min, washed with PBS, and lysed in 20 mM Tris-HCl buffer (pH 7.4) containing a protease inhibitor mixture (0.1 mM phenylmethanesulfonyl fluoride, 5 mg/mL aprotinin, 5 mg/mL pepstatin A, and 1 mg/mL chymostatin). The protein concentration was determined using a protein assay dye reagent concentrate (#5000006; Bio-Rad Laboratories, Hercules, CA, USA). […]

For data set [5], the system named is IL-8 production in TNF-α + IFN-γ-treated HaCaT cells. The data set can be described thus: IL-8 production in TNF-α + IFN-γ-treated HaCaT cells (ELISA). Format: cell-based, human. To be noted: for IL-8 production: HaCaT cells pre-treated 3 h, then TNF-α + IFN-γ 24 h, result in words; for IC50: Homo sapiens, HaCaT cells pre-incubated with compound 3 h, then TNF-α + IFN-γ (20 ng/mL) 24 h, ELISA. As for the experimental part: Next, the effect of the 16 compounds from C. tricuspidata on IL-8 production in HaCaT cells were determined. Briefly, HaCaT cells were pre-incubated with different concentrations of the 16 compounds for 3 h. Thereafter, the cells were subjected to TNF-α + IFN-γ stimulation for 24 h. […] Compound 2, with its flavanone skeletons, has been studied for its cyclooxygenase and tyrosinase inhibitory effects. In a previous study, compound 2 altered the anti-neuroinflammatory response in microglia. Compound 6, a prenylated flavanone, has been reported to have apoptotic effects on A375.S2 melanoma cells and to lead to the induction of apoptotic cell death in KM12, Caco-2, HT29, HCC2998, HCT116, and SW48 cell lines. […] This is the first report on the biological action of compounds 2, 6, 12, 13, 4, and 14 on the inhibitory effects of skin inflammatory factors in skin HaCaT cells. Therefore, further mechanism studies of these six compounds in HaCaT cells were conducted.
(§5) The cytokines and chemokines in IL-6, IL-8, CCL17 (TARC), and CCL5 (RANTES) HaCaT cells were detected using an enzyme-linked immunosorbent assay. The levels of these cytokines and chemokines were measured using commercial ELISA kits (BioLegend, San Diego, CA, USA), according to the manufacturer’s instructions.
Figure S3. Effects of the 16 compounds from C. tricuspidata on IL-8 (A, B, and C) production in TNF-α+IFN-γ-treated HaCaT cells. The cells were pre-treated with the indicated concentrations of the C. tricuspidata compounds for 3 h, and then stimulated with TNF-α+IFN-γ (20 ng/mL) for 24 h. […] levels were determined as described in the Materials and Methods section. Data are expressed as the mean ± standard deviation of three experiments. *p < 0.05, **p < 0.01, and ***p < 0.001 compared with TNF- […]
(1 picture or pasted object on this page, not shown here)

Data set [6] has as its system IL-6 production in TNF-α + IFN-γ-treated HaCaT cells. Put plainly: IL-6 production in TNF-α + IFN-γ-treated HaCaT cells (ELISA). The class given is cell-based, human. As to conditions: for IL-6 production: HaCaT cells pre-treated 3 h, then TNF-α + IFN-γ 24 h, result in words; for IC50: Homo sapiens, HaCaT cells pre-incubated with compound 3 h, then TNF-α + IFN-γ (20 ng/mL) 24 h, ELISA.
Source text: The skin consists of two basic layers: the epidermis and dermis. The epidermis is mainly composed of keratinocytes. Pro-inflammatory cytokines are known to play an important role in the immune response in keratinocytes. Previous studies have reported the roles of TNF-α and IFN-γ in inducing NF-κB activation, which upregulates the production of IL-6 and IL-8 [25]. […] Accordingly, the effect of the 16 compounds from C. tricuspidata on IL-6 production in TNF-α + IFN-γ-treated HaCaT cells were determined. Briefly, HaCaT cells were pre-incubated with different concentrations of the 16 compounds for 3 h, and then stimulated with TNF-α + IFN-γ for 24 h.
as §5
Figure S2. Effects of the 16 compounds from C. tricuspidata on IL-6 production in TNF-α+IFN-γ-treated HaCaT cells (A, B, and C). Cells were pre-treated with the indicated concentrations of the 16 compounds from C. tricuspidata for 3 h and then stimulated with TNF-α+IFN-γ (20 ng/mL) for 24 h. IL-6 levels were determined as described in the Materials and Methods section. The results are presented as the mean ± standard deviation of three experiments. *p < 0.05, **p < 0.01, and ***p < 0.001 compared with TNF-

The structures appear in SMILES notation.

Regarding `CC(C)=CCc1c(O)cc2c(c1O)C(=O)C[C@@H](c1ccc(O)cc1O)O2` [Compound 4, cudraflavanone B], in data set [1], the “degradation of IκBα in the cytoplasm” value is “inhibit”. In addition, in data set [2], the “NF-κB p65 translocation to the nucleus” value is given as “significantly inhibited”. The compound further gave a Cytotoxicity in data set [3] of more than 20 µM. In data set [4], the “phosphorylation of IκBα” value was “inhibited”. Further, in data set [5], the IL-8 production result is “decreased” and the IC50 was 9.88 ± 3.22 µM. Besides, in data set [6], the IL-6 production entry is given as “significantly decreased” and the IC50 was more than 20 µM.
As for `CC(C)=CCc1c(O)cc2oc(-c3ccc(O)cc3O)c(CC=C(C)C)c(=O)c2c1O` [Compound 6, cudraflavone C], the “degradation of IκBα in the cytoplasm” value in data set [1] is “inhibit”. The “NF-κB p65 translocation to the nucleus” value in data set [2] is recorded as “significantly inhibited”. The Cytotoxicity in data set [3] is more than 5 µM. In data set [5], the IL-8 production result is reported as “decreased” and the IC50 worked out at 2.16 ± 0.5 µM. In data set [6], the IL-6 production result is on record as “significantly decreased” and the IC50 amounted to 2.78 ± 0.75 µM.
In the case of `C=CC(C)(C)c1c(OC)cc2oc3cc(O)c(O)cc3c(=O)c2c1O` [Compound 13, 1,6,7-trihydroxy-2-(1,1-dimethyl-2-propenyl)-3-methoxyxanthone], in data set [1], the “degradation of IκBα in the cytoplasm” value is recorded as “inhibit”. In addition, the “NF-κB p65 translocation to the nucleus” value in data set [2] is recorded as “no significant effect”. Further, the Cytotoxicity in data set [3] is more than 40 µM. In addition, the “phosphorylation of IκBα” value in data set [4] was “inhibited”. Moreover, in data set [5], the IL-8 production result was “decreased” and the IC50 was found to be 3.87 ± 0.96 µM. In addition, in data set [6], the IL-6 production result is given as “significantly decreased” and the IC50 was found to be 9.69 ± 2.15 µM.
For the compound `C=CC(C)(C)c1c(O)cc(O)c2c(=O)c3cc(O)c(O)cc3oc12` [Compound 14, cudratricusxanthone L], in data set [1], the “degradation of IκBα in the cytoplasm” value is reported as “inhibit”. Also, the “NF-κB p65 translocation to the nucleus” value in data set [2] is given as “significantly inhibited”. The Cytotoxicity in data set [3] is more than 20 µM. In addition, the “phosphorylation of IκBα” value in data set [4] is “inhibited”. Further, in data set [5], the IL-8 production entry was “decreased” and the IC50 was 3.7 ± 0.7 µM. Besides, in data set [6], the IL-6 production result is recorded as “significantly decreased” and the IC50 was 9.86 ± 0.92 µM.
